We go through two compounds from PMC6155239, “Targeting PFKFB3 radiosensitizes cancer cells and suppresses homologous recombination” (Nature Communications, 2018).

Molecules are shown by their SMILES.

The target of one experiment is T1, BRAF(V600E) (Homo sapiens, UniProt P15056, V600E).
T1 construct: purchased DiscoverX (Eurofins) KINOMEscan / scanEDGE, inferred from the naming style
Kind of experiment: KINOMEscan. In kind it is binding. Particulars: 2000 nM; read-out: Percent Control.

The target of another experiment is PFKFB4 (Homo sapiens, UniProt Q16877). Kind of experiment: ADP-Glo kinase activity assay, PFKFB4. In kind it is biochemical. The protocol:
The kinase activity of the bi-functional enzyme was quantified based on the production of ADP and F-2,6-P2 from ATP by ADP-GloTM Kinase Assay (Promega). The assay was performed in two steps; first, after the kinase reaction, an equal volume of ADP-GloTM Reagent was added to terminate the kinase reaction and deplete the remaining ATP. Second, the Kinase Detection Reagent was added to simultaneously convert ADP to ATP and allow the newly synthesized ATP to be measured using a luciferase/luciferin reaction. The light generated was measured using a luminescence counter (1450 MicroBeta TriLux). The assay was performed in white 384-well plates (OptiPlate, 6007299, PerkinElmer) by consecutive additions of a test compound solution (0.1 µL, serial diluted in DMSO from compound DMSO stock solution and dispensed by acoustic dispensing from UV-star 384-well plate 7360153, VWR), enzyme solution (5 µL) and substrate (fructose-6-phosphate (F6P) and adenosine-5′-triphosphate (ATP)) containing solution (5 µL). […] Four reference dose–response curves, one of them being the QC compound, were included and serial diluted as the test compounds. […] The inhibitory potency or IC50 values of test compounds on the kinase activity of the enzymes were calculated using a four-parameter model (model 205) in XLfit (IDBS ActivityBase XE Runner).
(In ADP-Glo the light output rises with the ADP produced.)

The next experiment deals with T2, BMPR2 (Homo sapiens, UniProt Q13873).
T2 construct: purchased DiscoverX (Eurofins) KINOMEscan / scanEDGE, inferred from the naming style
Kind of experiment: KINOMEscan. In kind it is binding. The following applies: 2000 nM; read-out: Percent Control.

Another experiment has as its target T3, ABL1-phosphorylated (Homo sapiens, UniProt P00519).
T3 construct: purchased DiscoverX (Eurofins) KINOMEscan / scanEDGE, inferred from the naming style
Kind of experiment: KINOMEscan. In kind it is binding. The following applies: 2000 nM; read-out: Percent Control.

In a further experiment the target is T4, ERK1 (Homo sapiens, UniProt P27361).
T4 construct: purchased DiscoverX (Eurofins) KINOMEscan / scanEDGE, inferred from the naming style
Kind of experiment: KINOMEscan. In kind it is binding. The following applies: 2000 nM; read-out: Percent Control.

Another experiment concerns the target T5, EPHA2 (Homo sapiens, UniProt P29317).
T5 construct: purchased DiscoverX (Eurofins) KINOMEscan / scanEDGE, inferred from the naming style
Kind of experiment: KINOMEscan. In kind it is binding. Particulars: 2000 nM; read-out: Percent Control.

For a further experiment, the target named is T6, CDK11 (Homo sapiens, UniProt Q9BWU1).
T6 construct: purchased DiscoverX (Eurofins) KINOMEscan / scanEDGE, inferred from the naming style
Put plainly: KINOMEscan. It is filed as binding. Particulars: 2000 nM; read-out: Percent Control.

The target of experiment [1] is T7, ABL1(T315I)-phosphorylated (Homo sapiens, UniProt P00519, T315I).
T7 construct: purchased DiscoverX (Eurofins) KINOMEscan / scanEDGE, inferred from the naming style
Put plainly: KINOMEscan. The following applies: 2000 nM; read-out: Percent Control. In kind it is binding.

Another experiment deals with T8, CSNK1D (Homo sapiens, UniProt P48730).
T8 construct: purchased DiscoverX (Eurofins) KINOMEscan / scanEDGE, inferred from the naming style
Put plainly: KINOMEscan. In kind it is binding. Particulars: 2000 nM; read-out: Percent Control.

In the next experiment the target is T9, FGFR2 (Homo sapiens, UniProt P21802).
T9 construct: purchased DiscoverX (Eurofins) KINOMEscan / scanEDGE, inferred from the naming style
Kind of experiment: KINOMEscan. Particulars: 2000 nM; read-out: Percent Control. It is filed as binding.

Another experiment addresses PFKFB3 (Homo sapiens, UniProt Q16875). Kind of experiment: Cellular thermal shift assay (CETSA) in U2OS cells. In kind it is cell-based. The following applies: 10 µM. Here is the method:
U2OS cells in exponential growth rate were treated with indicated inhibitors at a concentration of 10 μM or DMSO for 6, 24, or 72 h and then harvested using trypsin, upon detachment trypsinization was inhibited by addition of cell media and cells spun down at 200 × g for 10 min at 4 °C. The pellet was resuspended in TBS (50 mM Tris–HCl (pH 7.5) and 150 mM NaCl) supplemented with protease inhibitors (Roche), cells were lysed by a freeze–thaw circle three times at −80 °C for 3 min and then 37 °C for 3 min. Debris was removed by centrifugation at 16,000 × g for 20 min at 4 °C, cell lysates were aliquoted and heated to indicated temperatures for 3 min. Insoluble proteins were then removed by centrifugation at 16,000 × g at 4 °C for 20 min, supernatant was transferred to new tubes and protein concentration was determined using BCA assay (Pierce). Western blot was performed according to standard procedures.

The test system of experiment [2] is U2OS cells. Put plainly: IR-induced RAD51 / RPA32 foci, confocal. It is filed as cell-based. The following applies: in combination with IR. The protocol:
Cells were grown on sterilized coverslips and fixed with 4% paraformaldehyde (PFA) (Santa Cruz) and 2% sucrose (Sigma Aldrich) for 15 min at room temperature. They were then permeabilized with 0.2% NP-40 (Thermo Scientific) for 10 min at room temperature followed by 30 min of blocking in blocking buffer (2 or 3% BSA, 5% glycerol, 0.1% Tween 20 (Sigma Aldrich)). Coverslips were subsequently incubated for 1, 2, or 24 h in primary antibody and 40 min in secondary antibody diluted in blocking buffer, DNA was stained with DAPI for 10 min. The coverslips were mounted with Prolonged Gold mounting medium (Invitrogen). Images were acquired with a Zeiss LSM 780 microscope using a 40× or 63× oil immersion lens and processed in ImageJ and CellProfiler.
To visualize PFKFB3, RPA32, RAD51, BRCA1, 53BP1, and RRM2 IRIF, the cells were first washed with PBS and then incubated for 5 min at room temperature with cytoskeleton (CSK) buffer containing 10 mM PIPES pH 7.0 (Sigma Aldrich), 100 mM NaCl (EMD Millipore), 300 mM sucrose (Sigma Aldrich), 3 mM MgCl2 (Sigma Aldrich), and 0.7% Triton X-100 (Sigma Aldrich). After these treatments, the cells were washed once again with PBS and then fixed in 4% PFA with 2% sucrose.

In experiment [3] the test system is U2OS cells. Kind of experiment: EdU labeling (DNA synthesis). It is filed as cell-based. The following applies: absence of IR. The protocol:
U2OS cells were seeded on sterilized slides and treated with 10 or 30 μM of 757 for 6 h, or 2 mM of hydroxyurea (HU) for 3 h (DMSO was used as control vehicle). Last 40 min of treatment, 10 μM of the thymidine analogue 5-ethynyl-2′-deoxyuridine (EdU) (Sigma Aldrich, catalog no. 1T511285) was added; cells were washed with PBS and then fixed with paraformaldehyde 4% and sucrose 2%. For the detection of incorporated EdU, the Click IT reaction was performed in accordance with the supplier’s recommendations (Life Technologies/ThermoFisher Scientific). Images were acquired with a Zeiss LSM 780 microscope using a 40× oil immersion lens and processed in ImageJ and CellProfiler (version 2.2.0).

PFKFB4, sequence (Q16877 whole entry, species assumed): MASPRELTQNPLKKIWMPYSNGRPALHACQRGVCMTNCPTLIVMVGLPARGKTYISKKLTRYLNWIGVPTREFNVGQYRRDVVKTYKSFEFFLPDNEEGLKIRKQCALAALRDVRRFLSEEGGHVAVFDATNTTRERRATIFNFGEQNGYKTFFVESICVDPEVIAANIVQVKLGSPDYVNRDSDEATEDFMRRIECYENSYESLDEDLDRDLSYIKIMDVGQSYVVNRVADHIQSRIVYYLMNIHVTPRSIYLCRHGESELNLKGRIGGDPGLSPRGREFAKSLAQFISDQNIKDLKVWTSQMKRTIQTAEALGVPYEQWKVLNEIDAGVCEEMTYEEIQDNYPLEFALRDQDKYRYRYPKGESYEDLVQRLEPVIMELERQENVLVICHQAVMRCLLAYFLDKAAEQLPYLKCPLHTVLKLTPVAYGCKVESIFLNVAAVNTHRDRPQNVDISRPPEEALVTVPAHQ
PFKFB3, sequence (Q16875 whole entry): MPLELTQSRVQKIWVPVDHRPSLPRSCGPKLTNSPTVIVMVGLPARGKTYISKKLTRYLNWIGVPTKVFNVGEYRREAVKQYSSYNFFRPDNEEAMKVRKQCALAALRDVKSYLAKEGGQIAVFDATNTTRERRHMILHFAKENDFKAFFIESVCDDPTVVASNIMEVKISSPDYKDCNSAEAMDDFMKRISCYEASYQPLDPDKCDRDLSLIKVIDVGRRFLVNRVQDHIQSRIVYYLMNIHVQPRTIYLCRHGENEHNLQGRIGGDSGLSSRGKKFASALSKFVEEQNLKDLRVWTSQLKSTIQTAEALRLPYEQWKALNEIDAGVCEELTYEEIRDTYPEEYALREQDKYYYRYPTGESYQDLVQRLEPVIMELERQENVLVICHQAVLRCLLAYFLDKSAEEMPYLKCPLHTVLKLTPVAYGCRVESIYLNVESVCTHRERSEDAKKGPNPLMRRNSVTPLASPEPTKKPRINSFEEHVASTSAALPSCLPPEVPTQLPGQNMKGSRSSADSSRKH
T8 sequence (P48730 whole entry): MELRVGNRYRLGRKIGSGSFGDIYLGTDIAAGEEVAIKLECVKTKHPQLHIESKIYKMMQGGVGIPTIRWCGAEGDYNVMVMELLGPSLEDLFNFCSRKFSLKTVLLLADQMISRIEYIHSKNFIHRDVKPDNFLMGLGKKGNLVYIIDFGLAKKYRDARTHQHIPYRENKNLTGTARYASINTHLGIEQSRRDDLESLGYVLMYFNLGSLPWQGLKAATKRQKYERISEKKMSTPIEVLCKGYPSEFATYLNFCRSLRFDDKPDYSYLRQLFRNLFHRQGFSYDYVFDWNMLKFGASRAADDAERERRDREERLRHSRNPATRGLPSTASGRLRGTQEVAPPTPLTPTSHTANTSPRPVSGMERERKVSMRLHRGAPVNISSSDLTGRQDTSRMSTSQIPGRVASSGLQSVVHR
T9 sequence (P21802 22-821): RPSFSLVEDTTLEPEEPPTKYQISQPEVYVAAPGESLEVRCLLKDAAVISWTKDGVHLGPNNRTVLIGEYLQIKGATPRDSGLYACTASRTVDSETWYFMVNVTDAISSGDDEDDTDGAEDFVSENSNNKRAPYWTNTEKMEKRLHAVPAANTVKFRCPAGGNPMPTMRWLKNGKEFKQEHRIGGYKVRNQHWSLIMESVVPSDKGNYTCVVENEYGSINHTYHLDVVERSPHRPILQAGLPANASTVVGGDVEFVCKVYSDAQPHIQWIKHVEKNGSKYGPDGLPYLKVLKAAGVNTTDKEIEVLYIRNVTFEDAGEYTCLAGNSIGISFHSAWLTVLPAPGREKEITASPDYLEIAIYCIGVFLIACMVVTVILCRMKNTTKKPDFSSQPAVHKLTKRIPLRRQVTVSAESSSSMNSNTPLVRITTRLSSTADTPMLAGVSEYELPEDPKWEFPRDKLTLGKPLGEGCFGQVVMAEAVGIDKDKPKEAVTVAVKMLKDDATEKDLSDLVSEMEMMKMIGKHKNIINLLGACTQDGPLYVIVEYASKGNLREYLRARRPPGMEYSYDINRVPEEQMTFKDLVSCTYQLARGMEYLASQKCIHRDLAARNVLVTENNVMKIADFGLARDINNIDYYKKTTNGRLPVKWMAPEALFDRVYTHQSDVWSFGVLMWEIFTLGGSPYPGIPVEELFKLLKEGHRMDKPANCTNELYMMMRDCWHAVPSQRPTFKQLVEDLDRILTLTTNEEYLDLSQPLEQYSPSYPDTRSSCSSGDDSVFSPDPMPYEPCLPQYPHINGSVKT
T1 sequence (P15056 whole entry V600E): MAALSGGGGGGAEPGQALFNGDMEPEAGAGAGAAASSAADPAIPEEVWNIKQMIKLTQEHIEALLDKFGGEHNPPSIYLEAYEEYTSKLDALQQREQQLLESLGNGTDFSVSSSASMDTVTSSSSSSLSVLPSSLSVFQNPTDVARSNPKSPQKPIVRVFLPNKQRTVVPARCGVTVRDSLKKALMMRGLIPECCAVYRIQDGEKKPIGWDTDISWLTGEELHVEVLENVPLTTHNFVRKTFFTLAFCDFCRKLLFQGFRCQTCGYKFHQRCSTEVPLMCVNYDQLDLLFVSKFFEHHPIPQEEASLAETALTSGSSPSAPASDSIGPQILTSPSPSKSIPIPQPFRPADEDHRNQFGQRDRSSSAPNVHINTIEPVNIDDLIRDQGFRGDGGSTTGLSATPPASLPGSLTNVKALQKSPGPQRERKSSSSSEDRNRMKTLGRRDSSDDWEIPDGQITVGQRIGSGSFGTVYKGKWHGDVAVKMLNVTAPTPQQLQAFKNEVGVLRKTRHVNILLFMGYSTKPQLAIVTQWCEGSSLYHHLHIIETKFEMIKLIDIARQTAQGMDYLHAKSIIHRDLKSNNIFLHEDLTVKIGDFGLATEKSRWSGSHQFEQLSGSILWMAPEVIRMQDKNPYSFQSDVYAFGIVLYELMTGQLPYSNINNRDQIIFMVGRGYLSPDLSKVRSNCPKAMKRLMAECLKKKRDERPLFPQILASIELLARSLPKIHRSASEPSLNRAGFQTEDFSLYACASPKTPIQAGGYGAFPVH
T2 sequence (Q13873 27-1038): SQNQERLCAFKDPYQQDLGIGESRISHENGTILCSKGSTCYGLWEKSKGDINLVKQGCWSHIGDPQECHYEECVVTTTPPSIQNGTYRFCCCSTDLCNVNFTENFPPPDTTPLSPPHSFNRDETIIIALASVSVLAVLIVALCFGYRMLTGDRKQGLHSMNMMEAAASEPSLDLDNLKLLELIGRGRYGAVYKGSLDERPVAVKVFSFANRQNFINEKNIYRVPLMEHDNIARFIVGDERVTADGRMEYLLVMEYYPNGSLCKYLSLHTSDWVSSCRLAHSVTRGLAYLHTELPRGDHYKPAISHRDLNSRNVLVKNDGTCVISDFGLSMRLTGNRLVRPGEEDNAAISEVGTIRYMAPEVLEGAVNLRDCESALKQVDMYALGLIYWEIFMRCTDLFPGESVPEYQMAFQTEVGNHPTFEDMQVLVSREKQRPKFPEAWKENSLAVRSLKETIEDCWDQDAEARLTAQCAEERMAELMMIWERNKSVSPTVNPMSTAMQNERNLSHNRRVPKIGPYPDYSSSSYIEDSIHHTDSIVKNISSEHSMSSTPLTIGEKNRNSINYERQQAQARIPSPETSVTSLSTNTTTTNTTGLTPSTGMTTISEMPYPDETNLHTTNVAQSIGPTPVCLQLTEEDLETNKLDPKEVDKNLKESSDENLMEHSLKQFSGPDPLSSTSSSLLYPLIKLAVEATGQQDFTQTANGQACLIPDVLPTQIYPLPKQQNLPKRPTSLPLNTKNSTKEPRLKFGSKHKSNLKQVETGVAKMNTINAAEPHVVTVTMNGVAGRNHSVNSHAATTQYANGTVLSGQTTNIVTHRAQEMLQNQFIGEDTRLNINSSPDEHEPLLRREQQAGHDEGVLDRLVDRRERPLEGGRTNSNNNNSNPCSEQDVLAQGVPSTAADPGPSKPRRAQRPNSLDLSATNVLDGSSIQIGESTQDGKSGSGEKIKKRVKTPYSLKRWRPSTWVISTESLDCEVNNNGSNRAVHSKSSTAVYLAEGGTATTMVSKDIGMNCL
T5 sequence (P29317 24-976): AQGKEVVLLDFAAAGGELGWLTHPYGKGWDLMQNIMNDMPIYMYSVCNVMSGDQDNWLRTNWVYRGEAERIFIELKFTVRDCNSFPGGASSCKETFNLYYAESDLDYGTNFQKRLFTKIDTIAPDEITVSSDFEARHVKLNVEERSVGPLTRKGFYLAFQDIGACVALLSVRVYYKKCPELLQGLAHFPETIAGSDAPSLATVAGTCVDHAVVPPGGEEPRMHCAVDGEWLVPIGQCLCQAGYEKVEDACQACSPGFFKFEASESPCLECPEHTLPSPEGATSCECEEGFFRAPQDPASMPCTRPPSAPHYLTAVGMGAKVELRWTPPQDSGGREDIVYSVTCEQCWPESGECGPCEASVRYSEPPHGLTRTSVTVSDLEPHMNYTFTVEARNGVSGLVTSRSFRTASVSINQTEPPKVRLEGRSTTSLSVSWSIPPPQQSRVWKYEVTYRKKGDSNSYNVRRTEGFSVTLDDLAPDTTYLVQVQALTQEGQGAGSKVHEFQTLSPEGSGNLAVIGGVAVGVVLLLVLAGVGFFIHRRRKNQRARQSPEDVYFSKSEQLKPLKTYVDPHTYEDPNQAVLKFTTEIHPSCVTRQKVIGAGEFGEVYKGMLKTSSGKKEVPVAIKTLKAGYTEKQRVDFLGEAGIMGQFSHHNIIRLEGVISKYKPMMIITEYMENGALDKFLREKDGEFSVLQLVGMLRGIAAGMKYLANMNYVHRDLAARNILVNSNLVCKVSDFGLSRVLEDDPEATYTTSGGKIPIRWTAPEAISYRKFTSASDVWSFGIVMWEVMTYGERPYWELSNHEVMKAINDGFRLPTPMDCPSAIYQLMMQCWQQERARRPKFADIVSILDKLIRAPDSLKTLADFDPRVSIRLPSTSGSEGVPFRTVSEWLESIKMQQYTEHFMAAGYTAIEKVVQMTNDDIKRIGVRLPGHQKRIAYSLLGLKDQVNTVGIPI

As a reminder, the IC50 is the concentration needed to halve the response being measured. A higher IC50 goes with lower potency. Regarding `O=C(O)c1ccc(NS(=O)(=O)c2cccc(-c3cc(F)ccc3O)c2)cc1O` [KAN0438241, 4-{[(5′-Fluoro-2′-hydroxybiphenyl-3-yl)sulfonyl]amino}-2-hydroxybenzoic acid], the remaining binding at 2 µM is 97% on BRAF(V600E); 88% at BMPR2; 96% at ABL1-phosphorylated; 99% on ERK1; 100% on EPHA2; 96% at CDK11. Further, the remaining binding at 2 µM in [1] was determined as 100%; at CSNK1D, 100%; at FGFR2, 88%. On PFKFB4 (ADP-GLO assay), this compound had an IC50 of 3.6 µM. Besides, on PFKFB4 (ratio of IC50 values), the “selectivity window PFKFB3 versus PFKFB4” value is “about 20 fold”.

For `O=C(OCCO)c1ccc(NS(=O)(=O)c2cccc(-c3cc(F)ccc3O)c2)cc1O` [KAN0438757, 2-Hydroxyethyl-4-{[(5′-fluoro-2′-hydroxybiphenyl-3-yl)sulfonyl]amino}-2-hydroxybenzoate], the “intracellular target engagement of PFKFB3 (CETSA)” value on PFKFB3 was “demonstrated intracellular target engagement”. In addition, the “IR-induced recruitment of RPA32 and RAD51 into repair foci (in words)” value in the experiment on U2OS cells [2] is given as “disrupted”. The “EdU intensity per cell in EdU-positive population (in words)” value in the experiment with U2OS cells [3] is on record as “decreased EdU intensity per cell”.
